The record followed here is patent US20070021414A1, “1-'2-(4-Hydroxyphenyl)-2-hydroxyethyl!-piperidin-4-ol compounds as nmda receptor antagonists” (PFIZER, INC., priority 2003, published 2007).

Structures can show the parent of a compound that is named as a salt.

Broadly, the melting point is the temperature, or range, at which the solid turns liquid.

The target in one data set is T1, HERG potassium channel (Homo sapiens, UniProt Q12809).
T1 construct: expressed in transfected cells; host or cells: HEK293S cells (membrane homogenate)
T1 sequence (Q12809 whole entry): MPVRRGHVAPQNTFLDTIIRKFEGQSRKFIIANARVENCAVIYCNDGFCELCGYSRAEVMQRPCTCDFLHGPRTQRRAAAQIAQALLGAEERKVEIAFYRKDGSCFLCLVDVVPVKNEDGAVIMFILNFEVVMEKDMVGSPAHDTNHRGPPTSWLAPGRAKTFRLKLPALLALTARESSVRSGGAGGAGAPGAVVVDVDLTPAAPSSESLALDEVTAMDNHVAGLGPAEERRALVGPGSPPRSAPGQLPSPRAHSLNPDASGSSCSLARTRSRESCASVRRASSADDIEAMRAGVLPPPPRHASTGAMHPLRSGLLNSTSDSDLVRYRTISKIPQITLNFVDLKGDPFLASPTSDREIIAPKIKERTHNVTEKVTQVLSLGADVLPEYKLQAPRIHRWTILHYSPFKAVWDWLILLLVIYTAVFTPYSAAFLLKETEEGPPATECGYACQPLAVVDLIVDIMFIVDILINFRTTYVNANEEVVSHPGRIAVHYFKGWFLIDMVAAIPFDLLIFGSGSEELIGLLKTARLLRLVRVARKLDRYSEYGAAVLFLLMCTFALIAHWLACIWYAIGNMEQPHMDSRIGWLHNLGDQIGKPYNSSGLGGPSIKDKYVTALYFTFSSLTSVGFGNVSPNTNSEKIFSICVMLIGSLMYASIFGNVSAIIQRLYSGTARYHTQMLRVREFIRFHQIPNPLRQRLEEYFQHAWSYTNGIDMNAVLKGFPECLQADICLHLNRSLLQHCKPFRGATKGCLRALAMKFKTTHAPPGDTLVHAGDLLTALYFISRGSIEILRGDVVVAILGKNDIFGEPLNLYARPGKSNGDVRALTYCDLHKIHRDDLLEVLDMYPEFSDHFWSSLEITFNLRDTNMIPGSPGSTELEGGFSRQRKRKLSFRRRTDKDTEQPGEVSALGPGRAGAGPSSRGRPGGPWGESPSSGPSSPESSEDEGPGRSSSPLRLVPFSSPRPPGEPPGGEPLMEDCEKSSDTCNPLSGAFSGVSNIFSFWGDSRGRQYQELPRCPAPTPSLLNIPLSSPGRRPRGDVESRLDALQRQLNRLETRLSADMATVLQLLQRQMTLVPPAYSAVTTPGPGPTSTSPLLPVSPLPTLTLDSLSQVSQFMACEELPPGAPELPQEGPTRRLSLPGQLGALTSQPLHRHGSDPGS
Kind of data set: Human Dofetilide Binding. Particulars: ratio of [3H]-dofetilide binding Ki (HERG transfected HEK293S membranes) to NR2B binding Ki. As for the experimental part:
Human BERG transfected HEK293S cells were prepared and grown in-house. The collected cells were suspended in 50 mM Tris-HCl (pH 7.4 at 4° C.) and homogenized using a hand held Polytron PT 1200 disruptor set at full power for 20 sec on ice. The homogenates were centrifuged at 48,000×g at 4° C. for 20 min. The pellets were then resuspended, homogenized, and centrifuged once more in the same manner. The final pellets were resuspended in an appropriate volume of 50 mM Tris-HCl, 10 mM KCl, 1 mM MgCl2 (pH 7.4 at 4° C.), homogenized, aliquoted and stored at −80° C. until use. An aliquot of membrane fractions was used for protein concentration determination using BCA protein assay kit (PIERCE) and ARVOsx plate reader (Wallac).
Binding assays were conducted in a total volume of 200 μl in 96-well plates. Twenty μl of test compounds were incubated with 20 μl of [^3H]-dofetilide (Amersham, final 5 nM) and 160 μl of membrane homogenate (25 μg protein) for 60 minutes at room temperature. Nonspecific binding was determined by 10 μM dofetilide at the final concentration. Incubation was terminated by rapid vacuum filtration over 0.5% presoaked GF/B Betaplate filter using Skatron cell harvester with 50 mM Tris-HCl, 10 mM KCl, 1 mM MgCl2, pH 7.4 at 4° C. The filters were dried, put into sample bags and filled with Betaplate Scint. Radioactivity bound to filter was counted with Wallac Betaplate counter.
For `Cc1cc([C@H](O)[C@H](C)N2CCC(O)(c3ccc(F)cc3)CC2)ccc1O` [comparative compound A], the “TI (Dofetilide Binding Ki [μM]/NR2B Binding Ki [nM]×1000)” value came to 220.

Tested on in another data set: not given
Assay: not given
Details: not given
On to `COc1ccc(C2(O)CCN(CC(O)c3ccc(O)c(Cl)c3)CC2)cn1.Cl` (stereo not drawn), for which the melting point is 214.3 °C. The compound `COc1ccc(C2(O)CCN(CC(O)c3cc(C)c(O)cc3C)CC2)cn1` (stereo not drawn) displayed a melting point of 156.5 °C.

`COc1ccc(C2(O)CCN(CC(O)c3cc(F)c(O)cc3F)CC2)cn1` (stereo not drawn) (as salt: hydrochloride) gave a melting point of 199.5 °C.

`Oc1ccc(C(O)CN2CCC(O)(c3cccc(F)c3)CC2)c(F)c1` (stereo not drawn) had a melting point of 186.1 °C.

Take `COc1ccc(C2(O)CCN(CC(O)c3ccc(O)cc3Cl)CC2)cn1` (stereo not drawn): the melting point was determined as 190.5 °C. Still for that read-out and setting: for `CCOc1ccc(C2(O)CCN(CC(O)c3ccc(O)c(C)c3)CC2)cn1` (stereo not drawn) the value was 189.3 °C; for `Oc1cc(F)c(C(O)CN2CCC(O)(c3cccc(F)c3)CC2)cc1F` (stereo not drawn) (as salt: hydrochloride), 207 °C. With `COCc1ccc(C2(O)CCN(CC(O)c3ccc(O)c(C)c3)CC2)cc1` (stereo not drawn), the melting point worked out at 164.4 °C.

`COCc1ccc(C2(O)CCN(CC(O)c3cc(C)c(O)cc3C)CC2)cc1` (stereo not drawn) yielded a melting point of 166.3 °C. As to `COc1ccc(C2(O)CCN(CC(O)c3ccc(O)c(C)c3)CC2)cn1` (stereo not drawn), the melting point was found to be 176 °C.

`Cc1cc(C(O)CN2CCC(O)(c3cccc(F)c3)CC2)c(F)cc1O` (stereo not drawn) registered a melting point of 161.7 °C.

As to `Oc1ccc(C(O)CN2CCC(O)(c3cccc(F)c3)CC2)cc1` (stereo not drawn), the melting point was found to be 154.2 °C. The same measure, in the same setting: as for `COc1ccc(C2(O)CCN(CC(O)c3ccc(O)cc3)CC2)cn1` (stereo not drawn), the figure is 198.8 °C; as for `Cc1cc(C(O)CN2CCC(O)(c3ccc4c(c3)COCC4)CC2)ccc1O` (stereo not drawn), 178.3 °C; as for `COc1ccc(C2(O)CCN(CC(O)c3cc(C)c(O)cc3F)CC2)cn1` (stereo not drawn), 183.6 °C. Same read-out and setting: as for `COc1ccc(C2(O)CCN(CC(O)c3ccc(O)c(C)c3)CC2)nc1F` (stereo not drawn), the figure is 172.3 °C; as for `Oc1ccc(C(O)CN2CCC(O)(c3ccc4c(c3)COCC4)CC2)c(F)c1` (stereo not drawn), 186.1 °C. Still for that read-out and setting: as for `COCc1ccc(C2(O)CCN(CC(O)c3ccc(O)cc3)CC2)cc1` (stereo not drawn), the figure is 169.6 °C; as for `Cc1cnc(C2(O)CCN(CC(O)c3ccc(O)c(C)c3)CC2)s1` (stereo not drawn), 163.7 °C. `CCCOc1ccc(C2(O)CCN(CC(O)c3ccc(O)c(C)c3)CC2)cn1` (stereo not drawn) displayed a melting point of 187.4 °C.
